SMILES strings stand for the structures.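 Protocol summary: plate cells (96-well), add compound at 5 concentrations, incubate 48 h, interpolate endpoints linearly. GI50 = concentration required for 50% inhibition of growth. TGI denotes the concentration required for complete inhibition of growth.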

Experimental findings from PubChem BioAssay (NCI) are described below.

Test systems include HCT-116 colon; MCF7 breast; NCI-H522 lung; SN12C renal; OVCAR-8 ovarian; OVCAR-3 ovarian; M14 melanoma; EKVX NSCLC; COLO 205 colon; SR leukemia.
Assay in all cases: DTP human tumour cell line panel, 48 h

By TGI is commonly meant the concentration giving total growth inhibition. Lower therefore signals more potent growth arrest. As to `CCc1ccc2nccc(NCCCN(C)C)c2c1[N+](=O)[O-]`, the TGI with HCT-116 colon, in the assay on MCF7 breast, in the assay with NCI-H522 lung, in the assay on SN12C renal, in the assay with OVCAR-8 ovarian and with OVCAR-3 ovarian was over 100 µM in each case. For the same compound, the TGI in the assay with M14 melanoma is 67.4 µM; in the assay with EKVX NSCLC, over 100 µM; in the assay on COLO 205 colon it was 94.1 µM; in the assay on SR leukemia, over 100 µM.

For `CCOC(=O)C(C(=O)OCC)C(=O)c1ccccc1C(=O)c1ccccc1`, the TGI with HCT-116 colon, with MCF7 breast, with NCI-H522 lung, in the assay with SN12C renal, in the assay with OVCAR-3 ovarian and in the assay with M14 melanoma was over 100 µM throughout. For the same compound, the results for the TGI in the assay on EKVX NSCLC, in the assay with COLO 205 colon and with SR leukemia were 96.7 µM, over 100 µM and 48.8 µM, respectively.

As usually defined, the GI50 is the concentration at which growth is held to half of that of the control. As for `Cc1ccc2nc(-c3ccc(N)c4ccccc34)[nH]c2c1`, the 50% growth inhibitory concentration (GI50) with HCT-116 colon was 0.04 µM; with MCF7 breast, 2.68 µM; in the assay on NCI-H522 lung, 0.0958 µM; in the assay on SN12C renal it was 0.0913 µM; with OVCAR-8 ovarian, 1.31 µM; in the assay with OVCAR-3 ovarian, 0.748 µM. Moreover, the 50% growth inhibitory concentration (GI50) is 0.054 µM in the assay on M14 melanoma, 0.185 µM in the assay on EKVX NSCLC, 1.07 µM in the assay on COLO 205 colon and 0.325 µM with SR leukemia. Also, the TGI in the assay on HCT-116 colon was 4.57 µM; in the assay on MCF7 breast, over 100 µM; in the assay with NCI-H522 lung, 1.3 µM; in the assay with SN12C renal, 19.4 µM; in the assay with OVCAR-8 ovarian, 16.9 µM; in the assay with OVCAR-3 ovarian, 1.85 µM. In addition, the concentration for total growth inhibition (TGI) in the assay on M14 melanoma was 0.427 µM; in the assay on EKVX NSCLC it was over 71.5 µM; in the assay with COLO 205 colon it was 6.31 µM; with SR leukemia it was 2.09 µM.

For the compound `C=C1C(OC/C=C/COC2O[C@@H]3O[C@@]4(C)CC[C@H]5[C@H](C)CC[C@@H](C2=C)[C@@]35OO4)O[C@@H]2O[C@@]3(C)CC[C@H]4[C@H](C)CC[C@@H]1[C@@]24OO3` (stereo partly drawn), the GI50 in the assay with HCT-116 colon is 0.0907 µM; with MCF7 breast, 0.0801 µM; in the assay on NCI-H522 lung it was 5.17 µM; in the assay on SN12C renal, 1.33 µM; in the assay on OVCAR-8 ovarian it was 1.96 µM; in the assay on M14 melanoma, 10.7 µM. The GI50 is 11.5 µM in the assay on EKVX NSCLC, 0.226 µM in the assay with COLO 205 colon and 0.0315 µM in the assay with SR leukemia. For the same compound, the total growth inhibition concentration (TGI) in the assay on HCT-116 colon was 16.6 µM; in the assay with MCF7 breast, 16.2 µM; with NCI-H522 lung, 69.6 µM; in the assay on SN12C renal it was 46.5 µM; in the assay with OVCAR-8 ovarian it was over 36.6 µM; in the assay on OVCAR-3 ovarian, 11.4 µM. The TGI in the assay with M14 melanoma was determined as 27.5 µM; with EKVX NSCLC it was 31.9 µM; with COLO 205 colon, 13.6 µM; with SR leukemia, 2.6 µM.

In the case of `Nc1nccc2c1ncn2C1OC(CO)C(O)C1O` (stereo not drawn), the GI50 was 39.2 µM with HCT-116 colon; 52 µM in the assay with MCF7 breast; over 100 µM in the assay with NCI-H522 lung; 89.3 µM with SN12C renal; 91.5 µM with OVCAR-8 ovarian; over 100 µM in the assay with OVCAR-3 ovarian. Also, the GI50 in the assay with M14 melanoma is over 100 µM; in the assay with EKVX NSCLC, over 100 µM; with COLO 205 colon, over 100 µM; with SR leukemia, 41.6 µM. For the same compound, the concentration for total growth inhibition (TGI) with HCT-116 colon, in the assay with MCF7 breast, with NCI-H522 lung, in the assay on SN12C renal, in the assay with OVCAR-8 ovarian and with OVCAR-3 ovarian was over 100 µM each time. In addition, the TGI with M14 melanoma, in the assay with EKVX NSCLC, with COLO 205 colon and in the assay on SR leukemia was over 100 µM throughout.

For the compound `COc1cccc(N=N/C(=N\NC(=O)c2cc(Br)ccc2O)c2ccc(N(CCC#N)CCC#N)cc2OC)c1`, the GI50 in the assay with HCT-116 colon was 46.4 mg/L; in the assay with MCF7 breast it was 43.7 mg/L; in the assay with NCI-H522 lung, 60.5 mg/L; with SN12C renal, 99.4 mg/L; in the assay on OVCAR-8 ovarian, 41.6 mg/L; with OVCAR-3 ovarian it was 59 mg/L. In addition, the GI50 with M14 melanoma is 57.3 mg/L; with EKVX NSCLC, 99.9 mg/L; in the assay on COLO 205 colon, 33.1 mg/L; in the assay on SR leukemia, 71.4 mg/L. Moreover, the TGI with HCT-116 colon, in the assay with MCF7 breast, in the assay with NCI-H522 lung, in the assay with SN12C renal, in the assay on OVCAR-8 ovarian and in the assay on OVCAR-3 ovarian was over 150 mg/L each time. Moreover, the TGI was over 150 mg/L in the assay with M14 melanoma, over 150 mg/L with EKVX NSCLC, 106 mg/L with COLO 205 colon and over 150 mg/L in the assay with SR leukemia.

As to `CCN(CC)CCn1c2ccc(OC)cc2c2sc3cc(OC)ccc3c(=O)c21`, the GI50 in the assay on HCT-116 colon was 0.659 µM; in the assay with MCF7 breast it was 1.16 µM; in the assay on NCI-H522 lung it was 1.71 µM; with SN12C renal it was 2.03 µM; in the assay with OVCAR-8 ovarian, 1.93 µM; with OVCAR-3 ovarian it was 2.12 µM. The GI50 in the assay with M14 melanoma is 1.64 µM; in the assay with EKVX NSCLC, 1.6 µM; with COLO 205 colon it was 1.39 µM; in the assay with SR leukemia, 0.704 µM. In addition, the concentration for total growth inhibition (TGI) was 2.02 µM with HCT-116 colon; 2.45 µM in the assay on MCF7 breast; 4.22 µM in the assay on NCI-H522 lung; 8.75 µM in the assay on SN12C renal; 11.3 µM in the assay with OVCAR-8 ovarian; 4.54 µM in the assay with OVCAR-3 ovarian. The TGI stood at 3.08 µM with M14 melanoma, 3.36 µM in the assay with EKVX NSCLC, 3.32 µM with COLO 205 colon and 3.05 µM with SR leukemia.

`COC(=O)[C@]12CC[C@@H](C)[C@H](C)[C@@H]1C1=CC[C@@H]3[C@@]4(C)C(C=O)=C[C@@](C)(COS(C)(=O)=O)C4[C@H](O)C[C@@]3(C)[C@]1(C)CC2` (stereo partly drawn): the GI50 in the assay on HCT-116 colon is 1.1 µM; in the assay on MCF7 breast it was 1.19 µM; in the assay on NCI-H522 lung, 1.21 µM; with SN12C renal, 2.28 µM; in the assay with OVCAR-8 ovarian it was 2.08 µM; in the assay on OVCAR-3 ovarian, 1.7 µM. Besides, the GI50 is 1.68 µM in the assay with M14 melanoma, 2.14 µM in the assay with EKVX NSCLC, 1.85 µM with COLO 205 colon and 0.299 µM in the assay with SR leukemia. For the same compound, the TGI with HCT-116 colon stood at 2.57 µM; in the assay with MCF7 breast, 3.63 µM; with NCI-H522 lung, 2.91 µM; in the assay on SN12C renal, 6.39 µM; in the assay with OVCAR-8 ovarian, 5.71 µM; in the assay on OVCAR-3 ovarian, 3.33 µM. Moreover, the total growth inhibition concentration (TGI) in the assay on M14 melanoma is 4.5 µM; in the assay with EKVX NSCLC, 6.28 µM; in the assay on COLO 205 colon, 3.93 µM; with SR leukemia, 1.38 µM.
